Measured values reported in publication PMC9126943, “ADAMTS4-specific MR probe to assess aortic aneurysms in vivo using synthetic peptide libraries” (Nature Communications, 2022).
“And” between values parts separate entries of the source, which are not always exact repeats. Equal entries are not always repeated. “Also recorded” adds a separate entry of the source. One block for each molecule: values may come before it. Where a SMILES comes first, the peptide text is derived from it. Bridges are numbered along the chain shown (N, C = ends). The star is where a group is joined. Cy5(nonsulfonated) = CN1C(=CC=CC=CC2=[N+](CCCCCC(=O)*)c3ccccc3C2(C)C)C(C)(C)c2ccccc21

Legend:
[1] = molecular target: T1, ADAMTS4 (Homo sapiens, UniProt O75173); assay: MST instrument, ligand-dependent fluorescence change, Cy5-labeled peptides vs ADAMTS4 (incl. alanine scan); format: binding; conditions: for binding to ADAMTS4 (ligand-dependent fluorescence change), in words: Cy5-labeled peptide 3 nM, 25 °C, n = 3
T1 construct: This is consistent with the recombinant proteins, we used in the screening process; purchased BioTeZ Berlin-Buch GmbH 30 400 102
T1 sequence (O75173 213-685): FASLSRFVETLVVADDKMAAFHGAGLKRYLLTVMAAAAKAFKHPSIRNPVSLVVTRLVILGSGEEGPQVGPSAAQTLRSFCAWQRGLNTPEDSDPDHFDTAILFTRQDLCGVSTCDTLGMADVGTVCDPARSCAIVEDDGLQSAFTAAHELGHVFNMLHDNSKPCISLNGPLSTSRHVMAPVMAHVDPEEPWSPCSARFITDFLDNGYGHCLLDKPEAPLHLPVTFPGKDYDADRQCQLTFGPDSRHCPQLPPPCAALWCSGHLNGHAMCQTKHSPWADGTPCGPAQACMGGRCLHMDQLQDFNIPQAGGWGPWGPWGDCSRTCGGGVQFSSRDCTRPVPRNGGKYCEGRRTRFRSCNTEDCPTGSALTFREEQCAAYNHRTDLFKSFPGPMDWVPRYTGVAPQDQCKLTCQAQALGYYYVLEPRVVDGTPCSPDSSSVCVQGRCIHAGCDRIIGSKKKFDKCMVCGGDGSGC
Description: Microscale thermophoresis (MST) was performed on a Monolith Pico (NanoTemper, Munich, Germany). The Cy5-labeled peptides were diluted into the MST buffer (150 mM NaCl, 50 mM TRIS-HCl, 5 mM CaCl2, and Tween-20) to reach a dilution of 6 nM. ADAMTS4, ADAMTS5, and ADAMTS1 were directly used with the supplied concentration. For ADAMTS4, the starting concentration was 4.96 µM, while for ADAMTS1 it was 4.88 µM and for ADAMTS5 it was 2.46 µM. […] 20 µl of the protein solutions were transferred into a PCR tube. 10 µl of this first vial was transferred into a second vial and mixed by pipetting with 10 µl of the MST buffer. The dilution series was continued 14 times. From tube 16, 10 µl were removed. Into all 16 tubes, 10 µl of the respective peptide solution were added and mixed by pipetting. The samples were incubated for 20 min and subsequently transferred to premium capillaries (NanoTemper, Munich, Germany). The capillaries were transferred into the Monolith tray and measured with 10% excitation power on the pico-red excitation on high MST power at 25 °C. Analysis was performed with MO.Affinity Analysis v3.0.1 (NanoTemper, Munich, Germany) and Origin 2022 (OriginLab Corporation, Northampton, MA). […] We checked for ADAMTS4 and the ADAMTS4-specific-Cy5-labeled probe via a saturation test for specifying the ligand-dependent fluorescence change. Therefore, the three highest ligand concentrations and the three lowest ligand concentrations of the measurement were used and centrifuged for 15 min at 16060 x g at 20 °C. Of each concentration, 7 µl were picked and mixed with 7 µl of a 10 M urea solution each. The samples were heated at 95 °C for 5 min and measured in the MST. […] Each measurement was repeated three times independently and the binding constant was calculated by merging all three measurements. […] The data were normalized using MO Affinity Analysis v3.0.1 and the fraction bound [−] was shown. […] Therefore, the percentage variance of the values to the average was plotted.
All measurements were performed with 10% LED power, high MST power and at 25 °C. The ligand dependent fluorescence change was used for determining the binding. […] The concentrations of the peptide were kept constant (3 nM in the measurement), while the proteins were diluted in the same manner as for ADAMTS4. […] The Cy5-labeled peptides (3 nM in the measurement) were kept constant, while ADAMTS4 was diluted in the same manner for each peptide (n=3 biologically independent measurements for each peptide; the data are presented as mean values ± SD). […] MST: microscale thermophoresis; nM: nanomolar; His: L-histidine; LED: light-emitting diode; n/a: not available; KD: binding constant.

[2] = molecular target: T1, ADAMTS4; assay: MST trace (MST points at 2.5 seconds) of peptides without fluorescence change; format: binding; conditions: high MST power
Description: Microscale thermophoresis (MST) was performed on a Monolith Pico (NanoTemper, Munich, Germany). The Cy5-labeled peptides were diluted into the MST buffer (150 mM NaCl, 50 mM TRIS-HCl, 5 mM CaCl2, and Tween-20) to reach a dilution of 6 nM. ADAMTS4, ADAMTS5, and ADAMTS1 were directly used with the supplied concentration. For ADAMTS4, the starting concentration was 4.96 µM, while for ADAMTS1 it was 4.88 µM and for ADAMTS5 it was 2.46 µM. Since we saw a loss of binding after centrifugation, the use of protein concentrators were inappropriate. 20 µl of the protein solutions were transferred into a PCR tube. 10 µl of this first vial was transferred into a second vial and mixed by pipetting with 10 µl of the MST buffer. […] The capillaries were transferred into the Monolith tray and measured with 10% excitation power on the pico-red excitation on high MST power at 25 °C. […] We detected a ligand-dependent fluorescence change for some of the systems. We checked for ADAMTS4 and the ADAMTS4-specific-Cy5-labeled probe via a saturation test for specifying the ligand-dependent fluorescence change. […] The samples were heated at 95 °C for 5 min and measured in the MST. The fluorescence difference between the concentrations was afterward at the same level. Each measurement was repeated three times independently and the binding constant was calculated by merging all three measurements. […]

[3] = molecular target: T2, ADAMTS4 in the aortic wall of ApoE−/− mice (Mus musculus, UniProt Q8BNJ2); assay: In vivo MRI with negative control probe and ADAMTS4-specific probe; conditions: for CNR post administration, individual animals: d1 = negative control probe, d2 = ADAMTS4-specific probe, 0.13 mmol/kg
T2 construct: from tissue
T2 sequence (Q8BNJ2 209-833): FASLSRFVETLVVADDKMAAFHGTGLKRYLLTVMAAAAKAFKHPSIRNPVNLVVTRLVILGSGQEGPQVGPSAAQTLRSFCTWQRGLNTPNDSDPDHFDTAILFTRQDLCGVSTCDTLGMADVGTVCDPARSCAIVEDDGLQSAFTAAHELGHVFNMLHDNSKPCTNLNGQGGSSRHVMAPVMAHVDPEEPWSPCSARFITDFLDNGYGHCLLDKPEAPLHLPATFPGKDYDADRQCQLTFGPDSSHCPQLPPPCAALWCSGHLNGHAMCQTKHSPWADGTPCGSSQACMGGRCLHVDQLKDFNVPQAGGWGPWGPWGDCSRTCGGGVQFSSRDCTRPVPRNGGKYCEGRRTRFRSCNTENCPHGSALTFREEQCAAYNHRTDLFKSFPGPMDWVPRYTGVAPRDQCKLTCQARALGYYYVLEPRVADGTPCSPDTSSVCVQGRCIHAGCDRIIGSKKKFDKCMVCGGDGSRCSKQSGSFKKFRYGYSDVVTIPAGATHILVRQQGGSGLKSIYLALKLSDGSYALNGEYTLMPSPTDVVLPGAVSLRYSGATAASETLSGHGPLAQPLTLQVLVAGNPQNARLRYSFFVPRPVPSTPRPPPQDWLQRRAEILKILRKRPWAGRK
Description: In vivo MR imaging was performed in 6 ApoE^−/− mice (n = 6): three mice (n = 3) received AngII through the osmotic minipumps, three mice (n = 3) received saline, serving as the control group. MR imaging was performed 4 weeks after minipump implantation. On day 1, a native MR scan was followed by the intravenous injection of the negative control peptide (0.13 mmol/kg) and a subsequent MR scan. 24 h later, mice were imaged prior to and following the intravenous administration of the ADAMTS4-specific probe (0.13 mmol/kg).
Analysis of resulting MR images was performed using OsiriX (version 7.1, OsiriX Foundation, Bernex, Switzerland). All morphometric measurements were conducted on high-resolution MRI images. In order to assess the signal intensities, regions of interest (ROIs) were measured as areas of signal enhancement, which were co-localized with areas of aneurysmal-aortic tissue. For these areas, the CNR was calculated using the following formula: CNR = (Combined vessel-wall and aneurysmal-aortic-tissue-signal − blood-signal)/standard-deviation-signal (noise). The signal of noise was defined as the standard deviation in pixel intensity from an ROI placed in the background air anterior to the aorta.

[4] = molecular target: ADAMTS4-specific peptide with the glycine exchanged for alanine (alanine scan peptide), Cy5-labeled; assay: MST; Monolith Pico; read-out is the ligand-dependent fluorescence change, not the thermophoresis; Cy5-labeled peptide constant (6 nM solution), protein in a 16-step 1:1 dilution series; 150 mM NaCl, 50 mM TRIS-HCl, 5 mM CaCl2, Tween-20; 25 °C
[5] = molecular target: ADAMTS4-specific probe, Cy5-labeled (cyclic peptide Cys*-Ser-Arg-Arg-Gly-Cys*-Ser with peptide linker); assay: as above

CNR post administration, individual animals ([3]; AAA (AngII) mice): 7.71 and 5.8 and 6.78
CNR post administration, individual animals ([3]; control (c, saline) mice): 4.54 and 4.4 and 5.52
Molecule: Cys*-Phe-His-Pro-Tyr-Cys*-linker (DOTA-Gd) (disulfide) [negative control probe, Cys*-Phe-His-Pro-Tyr-Cys*-linker (DOTA-Gd), similar size to the ADAMTS4-specific probe]
increase in MR signal / CNR in the aortic wall, in words ([3]; 0.13 mmol/kg i.v., 4 weeks after minipump implantation, n = 6): no significant increase; also recorded: significantly lower increase

Kd [4]: 609 nM
Kd [5]: 51 nM
B1: ADAMTS4 (A Disintegrin And Metalloproteinase with ThromboSpondin motifs 4), recombinant human (enzyme)
chain: T1 sequence (O75173 213-685)

Continued, molecule first:

Molecule: C[C@@H]1NC(=O)[C@H](CCCNC(=N)N)NC(=O)[C@H](CCCNC(=N)N)NC(=O)[C@H](CO)NC(=O)[C@@H](N)CSSC[C@@H](C(=O)N[C@@H](CO)C(=O)NCC(=O)NCC(=O)N[C@@H](CO)C(=O)NCC(=O)NCC(=O)N[C@@H](CCCCNC(=O)CCCCCN2C(=CC=CC=CC3=[N+](C)c4ccccc4C3(C)C)C(C)(C)c3ccccc32)C(=O)NCC(N)=O)NC1=O [ADAMTS4-specific probe-Gly] (H-CSRRACSGGSGGK(Cy5(nonsulfonated))G-NH2; disulfide 1-6; N-terminus and C-terminus assumed)
binding to ADAMTS4 (ligand-dependent fluorescence change), in words [1]: decrease the binding; also recorded: a ligand dependent fluorescence change occurs
decrease in the binding affinity versus the parent peptide ([1]; alanine scan): around ten times

Molecule: Cys*-Phe-His-Pro-Tyr-Cys*-Ser (disulfide) [negative control peptide]
binding to ADAMTS4 (ligand-dependent fluorescence change), in words [1]: could not find binding; also recorded: no fluorescence change was detectable; also recorded: did not show any binding
binding in the MST trace [2]: no binding occurs
